Source: the supplement of paper PMC10307832

Assays:
Test in all cases: relative viability (nuclei count vs DMSO), 5 days (fraction); higher = more cells survive
CAL-12T = test system: CAL-12T
Summary of the method: (§1)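 Relative viability divides the nuclei count in treated wells by that in vehicle wells. Lung cancer cell lines were seeded in 1536-well plates, dosed by pin tool the next day, and fixed and stained after 5 days in one step with final 0.05% Triton X-100, 1% formaldehyde and 1 ug/ml Hoechst. Dosing was a single drug or a fixed anchor-drug dose plus five library-drug doses (not always all listed) in √10 steps, and values are medians of duplicate plates imaged at 4×.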

EKVX = test system: EKVX
Summary of the method: as §1

H3255 = test system: H3255
Summary of the method: as §1

HCC-15 = test system: HCC-15
Summary of the method: as §1

HCC-827 = test system: HCC-827
Summary of the method: as §1

LCLC-97TM1 = test system: LCLC-97TM1
Summary of the method: as §1

LK-2 = test system: LK-2
Summary of the method: as §1

NCI-H1355 = test system: NCI-H1355
Summary of the method: as §1

NCI-H1650 = test system: NCI-H1650
Summary of the method: as §1

NCI-H1734 = test system: NCI-H1734
Summary of the method: as §1

NCI-H1755 = test system: NCI-H1755
Summary of the method: as §1

NCI-H1975 = test system: NCI-H1975
Summary of the method: as §1

NCI-H2228 = test system: NCI-H2228
Summary of the method: as §1

NCI-H2342 = test system: NCI-H2342
Summary of the method: as §1

NCI-H2405 = test system: NCI-H2405
Summary of the method: as §1

NCI-H322M = test system: NCI-H322M
Summary of the method: as §1

NCI-H520 = test system: NCI-H520
Summary of the method: as §1

NCI-H661 = test system: NCI-H661
Summary of the method: as §1

PC-14 = test system: PC-14
Summary of the method: as §1

PC-3 [JPC-3] = test system: PC-3 [JPC-3]
Summary of the method: as §1

RERF-LC-KJ = test system: RERF-LC-KJ
Summary of the method: as §1

`O=c1cc(-c2cccc3c2Sc2ccccc2S3)oc(N2CCOCC2)c1` + O=C(c1cc(Cc2n[nH]c(=O)c3ccccc23)ccc1F)N1CCN(C(=O)C2CC2)CC1 [Olaparib] (partner 8 µM) showed a relative viability (CAL-12T; first compound 0.08 µM) of 0.77, a relative viability (CAL-12T; first compound 0.253 µM) of 0.738 and a relative viability (CAL-12T; first compound 0.8 µM) of 0.759. The relative viability (CAL-12T; first compound 2.53 µM) was 0.731, the relative viability (CAL-12T; first compound 8 µM) was 0.402 and the relative viability (EKVX; first compound 0.08 µM) was 0.829. It also gave a relative viability (EKVX; first compound 0.253 µM) of 0.852, a relative viability (EKVX; first compound 0.8 µM) of 0.623 and a relative viability (EKVX; first compound 2.53 µM) of 0.803. It also gave a relative viability (EKVX; first compound 8 µM) of 1.05, a relative viability (H3255; first compound 0.08 µM) of 0.592 and a relative viability (H3255; first compound 0.253 µM) of 0.586. It also gave a relative viability (H3255; first compound 0.8 µM) of 0.571, a relative viability (H3255; first compound 2.53 µM) of 0.525 and a relative viability (H3255; first compound 8 µM) of 0.594. The relative viability (HCC-15; first compound 0.08 µM) was 0.756, the relative viability (HCC-15; first compound 0.253 µM) was 0.772 and the relative viability (HCC-15; first compound 0.8 µM) was 0.707. The relative viability (HCC-15; first compound 2.53 µM) was 0.654, the relative viability (HCC-15; first compound 8 µM) was 0.485 and the relative viability (HCC-827; first compound 0.08 µM) was 0.621. For the same compound, the relative viability (HCC-827; first compound 0.253 µM) was 0.716, the relative viability (HCC-827; first compound 0.8 µM) was 0.677 and the relative viability (HCC-827; first compound 2.53 µM) was 0.588. For the same compound, the relative viability (HCC-827; first compound 8 µM) was 0.768, the relative viability (LCLC-97TM1; first compound 0.08 µM) was 0.404 and the relative viability (LCLC-97TM1; first compound 0.253 µM) was 0.555. The relative viability (LCLC-97TM1; first compound 0.8 µM) was 0.463, the relative viability (LCLC-97TM1; first compound 2.53 µM) was 0.31 and the relative viability (LCLC-97TM1; first compound 8 µM) was 0.378. For the same compound, the relative viability (LK-2; first compound 0.08 µM) was 0.833, the relative viability (LK-2; first compound 0.253 µM) was 0.793 and the relative viability (LK-2; first compound 0.8 µM) was 0.79. For the same compound, the relative viability (LK-2; first compound 2.53 µM) was 0.62, the relative viability (LK-2; first compound 8 µM) was 0.749 and the relative viability (NCI-H1355; first compound 0.08 µM) was 0.801. For the same compound, the relative viability (NCI-H1355; first compound 0.253 µM) was 0.916, the relative viability (NCI-H1355; first compound 0.8 µM) was 0.65 and the relative viability (NCI-H1355; first compound 2.53 µM) was 0.717. It also gave a relative viability (NCI-H1355; first compound 8 µM) of 0.573, a relative viability (NCI-H1650; first compound 0.08 µM) of 0.702 and a relative viability (NCI-H1650; first compound 0.253 µM) of 0.8. The relative viability (NCI-H1650; first compound 0.8 µM) was 0.53, the relative viability (NCI-H1650; first compound 2.53 µM) was 0.782 and the relative viability (NCI-H1650; first compound 8 µM) was 0.734. It also gave a relative viability (NCI-H1734; first compound 0.08 µM) of 0.628, a relative viability (NCI-H1734; first compound 0.253 µM) of 0.659 and a relative viability (NCI-H1734; first compound 0.8 µM) of 0.713. The relative viability (NCI-H1734; first compound 8 µM) was 0.647, the relative viability (NCI-H1755; first compound 0.08 µM) was 0.843 and the relative viability (NCI-H1755; first compound 0.253 µM) was 0.998. For the same compound, the relative viability (NCI-H1755; first compound 0.8 µM) was 0.846, the relative viability (NCI-H1755; first compound 2.53 µM) was 0.884 and the relative viability (NCI-H1755; first compound 8 µM) was 0.91. For the same compound, the relative viability (NCI-H1975; first compound 0.08 µM) was 0.831, the relative viability (NCI-H1975; first compound 0.253 µM) was 0.94 and the relative viability (NCI-H1975; first compound 0.8 µM) was 0.737. It also gave a relative viability (NCI-H1975; first compound 2.53 µM) of 0.666, a relative viability (NCI-H1975; first compound 8 µM) of 0.598 and a relative viability (NCI-H2228; first compound 0.08 µM) of 0.691. For the same compound, the relative viability (NCI-H2228; first compound 0.253 µM) was 0.869, the relative viability (NCI-H2228; first compound 0.8 µM) was 0.799 and the relative viability (NCI-H2228; first compound 2.53 µM) was 0.83. It also gave a relative viability (NCI-H2228; first compound 8 µM) of 0.733, a relative viability (NCI-H2342; first compound 0.08 µM) of 0.52 and a relative viability (NCI-H2342; first compound 0.253 µM) of 0.419. It also gave a relative viability (NCI-H2342; first compound 0.8 µM) of 0.476, a relative viability (NCI-H2342; first compound 2.53 µM) of 0.471 and a relative viability (NCI-H2342; first compound 8 µM) of 0.423. It also gave a relative viability (NCI-H2405; first compound 0.08 µM) of 0.861, a relative viability (NCI-H2405; first compound 0.253 µM) of 1.04 and a relative viability (NCI-H2405; first compound 0.8 µM) of 0.791. The relative viability (NCI-H2405; first compound 2.53 µM) was 0.8, the relative viability (NCI-H2405; first compound 8 µM) was 0.936 and the relative viability (NCI-H322M; first compound 0.08 µM) was 0.523. The relative viability (NCI-H322M; first compound 0.253 µM) was 0.751, the relative viability (NCI-H322M; first compound 0.8 µM) was 0.746 and the relative viability (NCI-H322M; first compound 2.53 µM) was 0.811. For the same compound, the relative viability (NCI-H322M; first compound 8 µM) was 0.729, the relative viability (NCI-H520; first compound 0.08 µM) was 0.391 and the relative viability (NCI-H520; first compound 0.253 µM) was 0.321. It also gave a relative viability (NCI-H520; first compound 0.8 µM) of 0.439, a relative viability (NCI-H520; first compound 2.53 µM) of 0.322 and a relative viability (NCI-H520; first compound 8 µM) of 0.339. It also gave a relative viability (NCI-H661; first compound 0.08 µM) of 0.809, a relative viability (NCI-H661; first compound 0.253 µM) of 0.808 and a relative viability (NCI-H661; first compound 0.8 µM) of 0.76. For the same compound, the relative viability (NCI-H661; first compound 2.53 µM) was 0.777, the relative viability (NCI-H661; first compound 8 µM) was 0.712 and the relative viability (PC-14; first compound 0.08 µM) was 0.232. It also gave a relative viability (PC-14; first compound 0.253 µM) of 0.214, a relative viability (PC-14; first compound 0.8 µM) of 0.237 and a relative viability (PC-14; first compound 2.53 µM) of 0.169. It also gave a relative viability (PC-14; first compound 8 µM) of 0.165, a relative viability (PC-3 [JPC-3]; first compound 0.08 µM) of 1.13 and a relative viability (PC-3 [JPC-3]; first compound 0.253 µM) of 1.01. For the same compound, the relative viability (PC-3 [JPC-3]; first compound 0.8 µM) was 0.95, the relative viability (PC-3 [JPC-3]; first compound 2.53 µM) was 1.09 and the relative viability (PC-3 [JPC-3]; first compound 8 µM) was 1.19. For the same compound, the relative viability (RERF-LC-KJ; first compound 0.08 µM) was 1.08, the relative viability (RERF-LC-KJ; first compound 0.253 µM) was 1.07 and the relative viability (RERF-LC-KJ; first compound 0.8 µM) was 0.9. It also gave a relative viability (RERF-LC-KJ; first compound 2.53 µM) of 0.977 and a relative viability (RERF-LC-KJ; first compound 8 µM) of 0.843.
